Assay: Solid-state stability of amorphous form at ambient conditions
Assay type: physicochemical
Settings: amorphous form prepared by solidification, from solution or lyophilization

In the case of `O=C(O)CCCNC(=O)c1ccc(Cl)cc1O` [amorphous form, sodium 4-[(4-chloro-2-hydroxybenzoyl)amino]butanoate], the “stability at ambient conditions” value is reported as “unstable at ambient conditions and transforms to Form II”.

Source: US7208178B2, “Polymorphs of sodium 4-[(4-chloro-2-hydroxybenzoyl) amino] butanoate” (Emisphere Technologies, Inc., priority 2000, dated 2007)
